Test results taken from PubChem BioAssay (NCI).
Where “and” joins values, the source holds several entries; their conditions need not be identical. Equal values may be shown once.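 48-hour exposure; five concentrations; linearly interpolated endpoints. The concentration for 50% growth inhibition is given as GI50. TGI is the concentration that stops growth completely.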

Key:
Experiment in all cases: NCI tumour cell line growth inhibition, 48 h
TK-10 renal = system: TK-10 renal
NCI-H522 lung = system: NCI-H522 lung
EKVX NSCLC = system: EKVX NSCLC
A498 renal = system: A498 renal
CAKI-1 renal = system: CAKI-1 renal
MALME-3M melanoma = system: MALME-3M melanoma
HCT-15 colon = system: HCT-15 colon
HS 578T breast = system: HS 578T breast
M14 melanoma = system: M14 melanoma
T-47D breast = system: T-47D breast

Compound | TGI (TK-10 renal) [µM] | TGI (NCI-H522 lung) [µM] | TGI (EKVX NSCLC) [µM] | TGI (A498 renal) | TGI (CAKI-1 renal) [µM] | TGI (MALME-3M melanoma) [µM] | GI50 (TK-10 renal) [µM] | GI50 (HCT-15 colon) | TGI (HCT-15 colon) [µM] | GI50 (HS 578T breast) [µM] | TGI (HS 578T breast) [µM] | GI50 (NCI-H522 lung) | GI50 (EKVX NSCLC) [µM] | GI50 (M14 melanoma) [µM] | TGI (M14 melanoma) [µM] | GI50 (MALME-3M melanoma) [µM] | GI50 (T-47D breast) [µM] | TGI (T-47D breast) [µM] | GI50 (CAKI-1 renal) | GI50 (A498 renal) [µM]
COc1ccc(CC(=O)NCCc2ccc(OC)c(OC)c2)cc1Br | > 100 | > 100 | > 100 | > 100 µM | > 100 | > 100 |  |  |  |  |  |  |  |  |  |  |  |  |  | 
COc1ccc(/C(=N\O)c2cc(C)c(OC)c(C)c2)cc1O | > 100 | 0.0101 | > 100 |  |  | > 100 | 0.078 | < 0.01 µM | > 100 | 0.0198 | > 100 | < 0.01 µM | 0.0613 | < 0.01 | > 100 | < 0.01 |  |  |  | 
Cc1cc(NS(=O)(=O)c2ccc(NC(=O)c3ccc(Cl)c4c(Nc5ccc(S(=O)(=O)N=C(N)N)cc5)c5ccccc5nc34)cc2)no1 | > 100 | 61.6 | > 100 | > 100 µM |  | > 100 |  |  | > 100 |  |  |  |  |  | > 100 |  |  |  |  | 
Oc1ccccc1C=Nc1nc(SCc2ccccc2)nc2[nH]ncc12 | > 100 | > 100 | > 100 |  | > 100 | > 100 | 23.9 | > 100 µM | > 100 | 11 | 44.7 | 50.9 µM | > 100 | 38.4 | > 100 | 34.8 | 26.7 | 70.2 | 47.6 µM | 
O=C(NCCCCCCNC(=O)OCCSCCn1cc(C(=O)NC(=O)OCc2ccccc2)c(=O)[nH]c1=O)OCCSCCn1cc(C(=O)NC(=O)OCc2ccccc2)c(=O)[nH]c1=O | > 100 | > 100 | > 100 | > 100 µM | > 100 | > 100 |  |  | > 100 |  |  |  |  |  | > 100 |  |  |  |  | 
CCCCCCCCCCC(C(O)c1ccccc1)N1CCCCC1 (centres undefined) | 4.83 | 3.91 | 6.08 | 6.77 µM | 3.06 |  | 2.16 | 1.63 µM | 4.38 | 2.02 | 4.52 | 1.94 µM | 2.09 | 1.87 | 3.47 |  | 1.91 | 4.35 | 1.53 µM | 1.92
O=Cc1ccccc1B(O)O | > 100 | 97.9 |  |  | > 100 |  |  |  | > 100 |  | 49.3 |  |  |  | > 100 |  |  | 62.4 |  | 
O=c1[nH]c(=O)c2cc(C3CC(O)C(CO)O3)ccc2[nH]1 (centres undefined) |  | > 100 | > 100 | > 100 µM | > 100 |  |  | 93.3 µM | > 100 | > 100 | > 100 | > 100 µM | > 100 | > 100 | > 100 |  | > 100 | > 100 | > 100 µM | > 100
Fc1ccccc1C1SCc2nc3ccccc3n21 (centres undefined) | > 100 | > 100 | > 100 | > 100 µM | > 100 | > 100 |  |  |  |  |  |  |  |  |  |  |  |  |  | 
COc1ccc(S(=O)(=O)Nc2cc(/C=C\c3cc(OC)c(OC)c(OC)c3)ccc2OC)cc1 | 11.5 | 0.0564 |  | 0.382 µM | 20.6 | 61.1 | 0.0768 | 0.0623 µM | > 100 | 0.226 | > 100 | 0.0204 µM |  | 0.103 | > 100 | 0.0527 |  |  | 0.0515 µM | 0.0357
CC(C)(CN1CCCCC1)C(=O)/C=C/c1ccc(Cl)cc1 | 29.1 | 9.9 | 10 | 10.8 µM |  | 18.9 |  |  | 9.85 |  |  |  |  |  | 9.79 |  |  |  |  | 
O=c1nc(NC(c2ccccc2)(c2ccccc2)c2ccccc2)ccn1CCNCCn1ccc(NC(c2ccccc2)(c2ccccc2)c2ccccc2)nc1=O | 60.6 | 21.5 | 63.6 | 78 µM | > 100 | 29.3 |  |  | > 100 |  |  |  |  |  | 69.3 |  |  |  |  | 
O=C1CCCC(=O)N1CCc1c[nH]c2ccccc12 | > 100 |  | > 100 | > 100 µM | > 100 | > 100 |  |  |  |  |  |  |  |  | > 100 |  |  |  |  | 
COc1cc(C(O)C(=O)c2nc3ccc([N+](=O)[O-])cc3[nH]c2=O)ccc1O (centres undefined) | > 100 | > 100 | > 100 | 97 µM | > 100 | > 100 |  |  | > 100 |  |  |  |  |  | > 100 |  |  |  |  | 
O=C(c1ccccc1)[C@@H]1C[C@H](Sc2ccccc2)c2cc(Cl)ccc2N1 | 79.6 | 48.6 | 50.3 | 48.1 µM | > 100 | > 100 |  |  | > 100 |  |  |  |  |  | 74.5 |  |  |  |  | 
COc1cccc(OCCCN)c1-c1cc(Nc2cnc(C#N)cn2)n[nH]1 | 0.417 | 2.06 | 45.6 | 0.23 µM and < 0.0269 µM | 11.9 | 16.1 | 0.0065 | 0.0585 µM and 0.07 µM | 14 |  |  | 0.261 µM and 0.0454 µM |  | 0.00276 | 0.0135 |  | 7.91 | 24 | 0.405 µM and 0.0455 µM | 0.00476
Cc1ccc([N+](=O)[O-])cc1NC(=O)c1cccc([N+](=O)[O-])c1O | 93.8 | 26.6 | 72 | 48 µM | 89.7 | 62.7 |  |  | > 100 |  |  |  |  |  | 56.7 |  |  |  |  | 
C/C=C1/CCC2c3[nH]c4ccccc4c3CCN2C1 (centres undefined) | > 100 | > 100 | > 100 | > 100 µM | > 100 | 67.7 |  |  |  |  |  |  |  |  | 33.2 |  |  |  |  | 
CCCC/C=C1\CCC(C)(CN(C)C)C1=O (centres undefined) | > 100 | 75.9 | > 100 | > 100 µM | > 100 | > 100 |  |  | > 100 |  |  |  |  |  | > 100 |  |  |  |  | 
COC(=O)[C@]12CC=C3O[C@@H]4OC5(CCCCC5)O[C@@H]4C3[C@@H]1C(=O)CCC2=O (some centres undefined) |  | > 100 | > 100 | > 100 µM | > 100 | > 100 |  |  | > 100 |  |  |  |  |  | > 100 |  |  |  |  | 
